From ChEMBL document CHEMBL1139639, “A three-residue, continuous binding epitope peptidomimetic of ShK toxin as a Kv1.3 inhibitor” (Bioorg Med Chem Lett, 2005) come the findings set out here.

In the assay the target is Potassium voltage-gated channel subfamily A member 3 (Mus musculus, UniProt P16390). The experiment in a line: Effective concentration against murine voltage-gated potassium channel subunit Kv1.3 expressed in L929 cells using patch clamp. The class given is cell-based. For orientation: The patch-clamp technique gives a direct electrical read-out from membranes.
Potassium voltage-gated channel subfamily A member 3, sequence (P16390 whole entry): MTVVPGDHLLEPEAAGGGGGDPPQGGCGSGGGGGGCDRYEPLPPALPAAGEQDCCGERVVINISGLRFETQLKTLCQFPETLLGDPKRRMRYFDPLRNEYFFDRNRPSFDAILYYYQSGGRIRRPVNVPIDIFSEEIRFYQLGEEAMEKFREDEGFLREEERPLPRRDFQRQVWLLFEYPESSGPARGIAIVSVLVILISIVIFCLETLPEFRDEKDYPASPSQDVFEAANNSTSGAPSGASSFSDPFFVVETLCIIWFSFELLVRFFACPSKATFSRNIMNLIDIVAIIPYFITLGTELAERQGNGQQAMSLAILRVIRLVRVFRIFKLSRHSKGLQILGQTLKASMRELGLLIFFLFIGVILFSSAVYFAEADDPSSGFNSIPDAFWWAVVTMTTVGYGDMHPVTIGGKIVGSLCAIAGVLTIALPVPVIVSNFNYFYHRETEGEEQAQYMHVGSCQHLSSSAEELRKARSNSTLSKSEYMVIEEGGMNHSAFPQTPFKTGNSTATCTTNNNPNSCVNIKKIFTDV

The term EC50 denotes the concentration needed to bring the measured effect to its halfway point. The compound `NCCCCNC(=O)c1ccc(CN=C(N)N)c2ccn(CCc3ccccc3)c12` returned a half-maximal effective concentration (EC50) of 75 µM.
